Assay results from publication PMC11767950, “Human Serum Albumin and Human Serum Albumin Nanoparticles as Carriers of 10-(2′-Pyrimidyl)-3,6-diazaphenothiazine: In Vitro Spectroscopic Studies” (Molecules, 2025).
pKd: −log10 of the molar value.

Biological target: T1, Human serum albumin (HSA) (Homo sapiens, UniProt P02768)
T1 construct: gene ALB
Experiment: intrinsic fluorescence quenching (Stern-Volmer, Klotz Ka), dansyl amino acid marker displacement, far UV-CD
Type: binding
Details: read-out: λex 275 nm / Ka [mol^-1.L] ± SD ^1

T1 sequence (P02768 25-609): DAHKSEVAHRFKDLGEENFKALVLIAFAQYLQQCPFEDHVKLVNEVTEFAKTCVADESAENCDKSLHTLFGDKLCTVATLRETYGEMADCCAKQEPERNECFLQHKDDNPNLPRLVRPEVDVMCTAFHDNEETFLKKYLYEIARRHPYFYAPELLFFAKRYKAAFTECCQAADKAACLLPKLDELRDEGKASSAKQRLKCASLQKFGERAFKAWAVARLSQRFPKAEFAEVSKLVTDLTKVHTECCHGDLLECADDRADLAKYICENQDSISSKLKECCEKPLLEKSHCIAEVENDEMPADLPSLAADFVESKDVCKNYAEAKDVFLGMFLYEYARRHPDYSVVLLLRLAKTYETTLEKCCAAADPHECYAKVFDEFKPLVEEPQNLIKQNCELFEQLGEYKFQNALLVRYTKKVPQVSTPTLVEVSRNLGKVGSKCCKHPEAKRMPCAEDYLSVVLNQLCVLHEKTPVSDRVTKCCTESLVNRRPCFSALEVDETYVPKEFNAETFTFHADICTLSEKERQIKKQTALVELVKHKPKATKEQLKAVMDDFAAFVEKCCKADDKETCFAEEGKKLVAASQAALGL

For `c1cnc(N2c3ccncc3Sc3ncccc32)nc1` [10-Pyr-3,6-DAPT, 10-(2′-pyrimidyl)-3,6-diazaphenothiazine], the pKd was 4.72.
